The values that follow come from PMC12102733, “The mycotoxin Beauvericin is an uncompetitive inhibitor of Cathepsin B” (Protein Science : A Publication of the Protein Society, 2025).

pKi: −log10 of the molar value.

One series concerns the target T1, human CTSB (Homo sapiens, UniProt P07858).
T1 construct: purchased R&D Biosystems 953‐CY
In words: Enzyme kinetics of recombinant human CTSB in the presence of BEA. In kind it is biochemical. As to conditions: uncompetitive; approximated from closest neighbor intersection point of [S]/v vs. [I] plot; Z-Leu-Arg AMC substrate, BEA 0-25 μM, 25 mM MES pH 5, 26°C; read-out: K i (estimated). The protocol: Recombinant human CTSB (R&D Biosystems, Cat# 953‐CY) was activated in a solution of 25 mM MES pH 5 and 5 mM DTT at a protein concentration of 25 μg/mL, as indicated by the manufacturer. The activation was carried out by incubating the solution in a thermal bath at 26°C for 30 min and then diluting it to a concentration of 0.2 μg/mL in a 25 mM MES buffer pH 5. Complete conversion of Procathepsin B into its cleaved form by activation was verified by SDS‐PAGE (Figure S1, Supporting Information).
Reactions were carried out in a 96‐well black microplate (Greiner Bio‐One, Cat# 675086) in a final volume of 100 μL, using 20 ng of enzyme with increasing concentrations of the fluorogenic substrate Z‐Leu‐Arg AMC (R&D Biosystems, Cat# ES008) (from 0 to 200 μM) and BEA (from 0 to 25 μM).
Progress curves were measured using a TECAN infinite M plex microplate reader with an excitation wavelength of 380 nm and an emission wavelength of 460 nm. All the components, except the enzyme, were loaded onto the plate and were left to reach a temperature of 26°C. Protein samples were loaded using a multichannel pipette. Plates were shaken using a pulse of 3.5 s with an amplitude of 4.5 mm. Data was collected for a total of 1400 s with a reading interval of 45 s.
Reaction rates were calculated from the progress curves using linear regression. […]

The nature of series [1]: Solubility in aqueous buffers. The class given is physicochemical. As to conditions: 0.1% (v/v) Tween 20 used to increase solubility. The protocol: NMR experiments were performed at 298 K on Bruker Avance III HD spectrometers operating at 750 MHz, equipped with 5 mm triple resonance TCI (^1H, ^13C, ^15N) cryoprobes and shielded z‐gradients. BEA compound was purchased (Item No. 11426) from Cayman Chemical, Ann Arbor, Michigan, USA, and recombinant human CTSB (6His tag at the C‐terminus) was purchased (Item No. 153921.10) from Biomol GmbH, Hamburg, Germany. Both CTSB and BEA were used without any further purifications. The purity of the compound (>95%) was checked by 1D ^1H NMR of 250 μM BEA compound measured (256 scans) in 90% (v/v) DMSOd6 (Figure 2a). […] To perform STD‐NMR experiments, 5 μM of CTSB and 250 μM BEA were prepared in 25 mM oxalic acid/sodium oxalate, 5% (v/v) DMSOd6, pH 5.0, 10% (v/v) D2O, and 0.1% (v/v) Tween 20. The STD‐NMR spectra were acquired with 4928 scans, and the subtraction of the reference spectrum was performed internally via phase cycling after every scan to obtain the STD effect. […] There was no compound signal detected below 0 ppm. […] The STD intensity of the aromatic proton STD effect was set to 100% as a reference, and the relative intensities were determined (Mayer and Meyer [2001]). […] Data was processed and analyzed with TopSpin 3.2 (Bruker BioSpin). […]

Turning to `CC(C)[C@H]1OC(=O)[C@H](Cc2ccccc2)N(C)C(=O)[C@@H](C(C)C)OC(=O)[C@H](Cc2ccccc2)N(C)C(=O)[C@@H](C(C)C)OC(=O)[C@H](Cc2ccccc2)N(C)C1=O` [BEA, Beauvericin], the pKi at human CTSB is around 4.35. Besides, in series [1], the “solubility in aqueous buffers” value was “sparingly soluble in aqueous buffers”.
